Source: patent publication US6455593B1, “Method of dynamic retardation of cell cycle kinetics to potentiate cell damage” (priority 1995, dated 2002)
Where two headings read alike, the source gives them in different places.

How the values were obtained:
p. falciparum W2 = assay: Parasite growth by 3H-hypoxanthine uptake in infected erythrocytes; assay type: cell-based; details: Plasmodium falciparum, W2, Erythrocyte, read-out: inhibitory concentrations (IC50), strain W2
[1] = cited from earlier work
[2] = test system: human malignant lymphoma cells (U937); assay: Clonogenic assay in methylcellulose; assay type: cell-based
Description: Elimination of a targeted cell population by a cytotoxic agent or agent combinations can not be assured if cells with generative capacity survive. The clonogenic assay in soft agar or methylcellulose is a practical and useful means of determining long-term effects of cytotoxic agents on a malignant cell population, since malignant cells are often capable of growing and forming colonies in these media. The colony forming efficiency of any line or population of malignant cells must be established from the colony count in relationship to the inoculum number and varies over a wide range. […] (same protocol as Example 2A, Table 7). Methylcellulose (MC) solution 2.1-2.3% was obtained from Stem Cell Technologies in Vancouver, B.C. and made up in a series of sterile tubes: (a) 0.4 ml MC stock solution, (b) 50 μl of NuSerum, (c) 2×10^4 cells from the treated cell suspension from the 24-well plate (about 250 μl) and (d) complete growth medium to make a final volume of 1 ml (final cell density=about 2×10^4 cells). A syringe with 18 g. needle was used to transfer load 100 μl of each sample the final cell preparation to each of triplicate wells in a 96-well plate. Thus the final cell number was about 2,000 cells/well. Plates were examined daily for colony formation. At days 3-5, colonies were counted. and colonies were overlaid with MTT: 25 μl, incubated overnight at 37° C. and 100 μl of 4% formalin was added to aid visualization and photography. […] The effective cytotoxicity was calculated as 1−C/C0 where C=the number of colonies formed by a sample of treated cells and C0=the number of colonies formed by an equal sample of untreated cells.

U937 cells [3] = assay: Delayed proliferation assay (MTT 48 hr after washing)
Experimental: Microcultures treated with an agent or agents for a defined period (exactly as in Example 8) were washed. Seventy-five percent of the well volume was removed without disturbing the sedimented cells, and medium was added to yield a ⅕ dilution. In three additional washes and cell sedimentations, 50% of the medium was replaced such that the original concentration of agents was reduced to <5%. The metabolic mass of cells surviving or proliferating at 48 hr after the washings, including the untreated control cells, was then assayed by the MTT method (total elapsed time of 70 hours).
As an adjunct to the delayed proliferative assay, we utilized an “immediate plate” to quantitate the cell mass at the beginning of the experiment (N0=original cell mass). It required no more than a single column of microwells filled with 50 μl of growth medium each, and aliquots of cells in 50 μl identical to those transferred to the usual “test plate”. The immediate plate was incubated at 37° C. to complete the MTT assay for the same time as used for the test plate (i.e. 3 hr).
Taking the mean final cell mass at 70 hours as N, each data point represents a ratio of the mean cell mass of dThd-treated cells as fraction of N/N0. A ratio of N/N0=1 indicates no change in original cell mass (i.e. no growth of the targeted population). A ratio of N/N0>1 indicates overall growth of the targeted population. A ratio of N/N0<1 indicates overall population loss (cell killing).
Taking the mean final cell mass at 70 hours as N, positive percentages represent the % effective cytotoxicity (EC%) expressed as 1−N/N0 and converted to a percentage, in relation to concentration. Thus, EC obtained only for ratios of N/N0<1 (i.e. positive percentages).

U937 cells [4] = assay: Bivariate flow cytometry, dUTP terminal transferase labelling of DNA strand breaks; assay type: cell-based, human
Experimental: In a more sophisticated use of flow cytometry, DNA strand breaks were detected in nuclei by means of terminal transferase and homopolymer tailing as described by Gorczyca W. et al., Cancer Res 53:1945-1951 (1993). Samples of 1×10^6 cells were fixed in 1% buffered formaldehyde at 0° C. for 5 minutes, washed with PBS, resuspended in 70% ethanol and stored at […] for 48 hours. Cells were rehydrated in PBS, then suspended in 100 μl of cacodylate buffer and 2.5 mM CoCI2 to prepare them for the terminal transferase reaction. Biotin-labelled 16-dUTP and terminal transferase (Boehringer Mannheim, GmbH) were added to provide the final concentration of […] and 500 units/ml, respectively, and reacted with the cells at 37° C. for 30 minutes. Cells were rinsed in PBS, resuspended in a 4×saline-citrate buffer with 0.1% triton X100, 5% (w/v) non-fat powdered milk and 2.5 μg/ml FITC-labelled avidin, Boehringer Mannheim, supra, and incubated at room temperature for 30 minutes. Excess avidin-FITC was removed by washing the cells with PBS containing 0.1% triton X-100. In the cells with DNA damage, biotin-labelled dUTP was localized by the avidin-FITC: avidin and biotin form a strong linkage and reveal the extent of dUTP homopolymer tailing.
The amount of DNA per cell reflects the cell cycle position of each cell.

[5] = Homo sapiens, U-937, 96 h, read-out: Maximum effective cytotoxicity (1-C/C0), clonogenic

Compound: C[C@@]1(CO)[C@H](O)CC[C@@]2(C)[C@H]1CC[C@H]1C[C@@H]3C[C@@]12CC[C@]3(O)CO [Aph, aphidicolin]
- IC50 (p. falciparum W2; 24 hr after RBC infection, 3H-hypoxanthine uptake): 123 nM
- Peak plasma levels ([1]; continuous infusion, minimal toxicity): 3 µg/mL

Compound: CN[C@@H]1C[C@H]2O[C@@](C)([C@@H]1OC)n1c3ccccc3c3c4c(c5c6ccccc6n2c5c31)C(=O)NC4 [STSP, staurosporine]
- IC50 (p. falciparum W2): 150 nM
- Emax at 0.02 µM [2, 5]: 40 to 60%
- Effective cytotoxicity, clonogenic ([2]; optimal synergistic match of dThd and STSP, 96 hours): almost total cytotoxicity
- Effective cytotoxicity (1-N/N0) (U937 cells [3]; 13 nM STSP in the presence of 0.5 mM dThd, 70 hours): about 85%
- Effective cytotoxicity (1-N/N0) (U937 cells [3]; 25 nM STSP in the presence of 0.1 mM dThd, 70 hours): about 85%
- dUTP labelling (DNA fragmentation) (U937 cells [4]; 4 hours of 0.2 mM dThd followed by 25 nM STSP for additional 7 hours): marked increase in the number of dUTP labelled cells

Compound: Cc1cn([C@H]2C[C@H](O)[C@@H](CO)O2)c(=O)[nH]c1=O [dThd, deoxythymidine]
- Emax at 100 µM [2, 5]: 40 to 60%
- Blood (plasma) levels achieved ([1]; human subjects, oral doses): up to 6 mM
- Effect on cell growth (U937 cells [3]; 0.1 mM dThd alone, FIG. 20): minimal effect on cell growth as compared to controls
- Concentration for effective cytotoxicity of 40% (EC40) (U937 cells [3]; dThd alone, 70 hours): More than 3 mM
- dUTP labelling (DNA fragmentation) (U937 cells [4]; 3 mM dThd, 11 hours): appearance of cells with dUTP labelling, indicating DNA fragmentation
